In US12059420B2 (BRISTOL-MYERS SQUIBB COMPANY, priority 2018, dated 2024):
Counter-ions that a name gives are not always drawn.

molecular target: T1, human IDO1 (Homo sapiens, UniProt P14902); assay: IDO inhibition assay in HEK293 cells stably expressing human IDO1 (kynurenine production, Ehrlich reagent, absorbance 490 nm); format: cell-based; conditions: 20 hours incubation with compound, 500 nM reference standard = 100% inhibition, read-out: IDO1 HEK Human IC50
T1 construct: expressed in transfected cells
T1 sequence (P14902 whole entry): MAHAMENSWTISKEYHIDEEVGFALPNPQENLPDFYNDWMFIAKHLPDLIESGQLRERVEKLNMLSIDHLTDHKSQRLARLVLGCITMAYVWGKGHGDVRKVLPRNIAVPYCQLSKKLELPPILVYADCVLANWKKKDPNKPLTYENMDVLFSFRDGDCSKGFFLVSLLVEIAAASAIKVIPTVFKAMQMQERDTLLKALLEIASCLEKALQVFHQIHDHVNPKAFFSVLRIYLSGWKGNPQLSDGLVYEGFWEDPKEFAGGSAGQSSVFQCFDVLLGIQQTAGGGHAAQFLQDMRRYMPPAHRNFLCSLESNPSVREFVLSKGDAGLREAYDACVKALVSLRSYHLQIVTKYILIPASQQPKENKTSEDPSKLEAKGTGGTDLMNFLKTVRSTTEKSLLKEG
Method: HEK293 cells were transfected with a pCDNA-based mammalian expression vector harboring human IDO1 cDNA (NM 002164.2) by electroporation. They were cultured in medium (DMEM with 10% FBS) containing 1 mg/ml G418 for two weeks. Clones of HEK293 cells that stably expressed human IDO1 protein were selected and expanded for IDO inhibition assay.
The human IDO1/HEK293 cells were seeded at 10,000 cells per 50 μL per well with RPMI/phenol red free media contains 10% FBS in a 384-well black wall clear bottom tissue culture plate (Matrix Technologies LLC) 100 nL of certain concentration of compound was then added to each well using ECHO liquid handling systems. The cells were incubated for 20 hours in 37° C. incubator with 5% CO2.
The compound treatments were stopped by adding trichloroacetic acid (Sigma-Aldrich) to a final concentration at 0.2%. The cell plate was further incubated at 50° C. for 30 minute. The equal volume supernatant (20 μL) and 0.2% (w/v) Ehrlich reagent (4-dimethylaminobenzaldehyde, Sigma-Aldrich) in glacial acetic acid were mixed in a new clear bottom 384-well plate. This plate was then incubated at RT for 30 minute. The absorbance at 490 nm was measured on Envision plate reader.
Compound IC50 values were calculated using the counts of 500 nM of a reference standard treatment as one hundred percent inhibition, and counts of no compound but DMSO treatment as zero percent inhibition.

| IC50 [nM] | Structure (SMILES) |
| --- | --- |
| 11.8 | CCCN(Cc1ccccc1)c1cc(NC(=O)Nc2ccc(C)cc2)cc(-c2cc(C)ccc2-c2noc(=O)[nH]2)n1 [Example 26, 1-(2-(benzyl(propyl)amino)-6-(5-methyl-2-(5-oxo-4,5-dihydro-1,2,4-oxadiazol-3-yl)phenyl)pyridin-4-yl)-3-(p-tolyl)urea] |
| 607 | CCCN(Cc1ccccc1)c1cc(NC(=O)Nc2ccc(C)cc2)cc(-c2ccccc2S(N)(=O)=O)n1 [Example 27, 2-(6-(benzyl (propyl)amino)-4-(3-(p-tolyl)ureido)pyridin-2-yl) benzene sulfonamide] |
| 80.1 | CCCN(Cc1ccccc1)c1cc(NC(=O)Cc2ccc(C)cc2)cc(-c2ccccc2-c2nc(=O)o[nH]2)n1 [Example 28, N-(2-(benzyl (propyl)amino)-6-(2-(5-oxo-2,5-dihydro-1,2,4-oxadiazol-3-yl)phenyl)pyridin-4-yl)-2-(p-tolyl)acetamide] |
| 616 | CCCN(Cc1ccccc1)c1cc(NC(=O)Cc2ccc(C)cc2)cc(-c2ccccc2C(N)=O)n1 [Example 29] |
| 13.9 | CCCN(Cc1ccccc1)c1cc(NC(=O)Nc2ccc(C)cc2)cc(-c2ccccc2-c2nc(=O)o[nH]2)n1 [Example 31, 1-(2-(benzyl (propyl)amino)-6-(2-(5-oxo-4,5-dihydro-1,2,4-oxadiazol-3-yl)phenyl)pyridin-4-yl)-3-(p-tolyl) urea] |
| 4100 | CCCN(Cc1ccccc1)c1cc(NC(=O)Nc2ccc(C)cc2)cc(-c2ccccc2S(=O)(=O)NC(=O)c2ccccc2)n1 [Example 32, N-((2-(6-(benzyl (propyl)amino)-4-(3-(p-tolyl)ureido)pyridin-2-yl)phenyl)sulfonyl) benzamide] |
| 508 | CCCN(Cc1ccccc1)c1cc(NC(=O)Cc2ccc(C)cc2)cc(-c2ccccc2S(N)(=O)=O)n1 [Example 33, N-(2-(benzyl (propyl)amino)-6-(2-sulfamoylphenyl)pyridin-4-yl)-2-(p-tolyl) acetamide] |
| 237 | CCCN(Cc1ccccc1)c1cc(NC(=O)Cc2ccc(C)cc2)cc(-c2ccccc2S(=O)(=O)NC(C)=O)n1 [Example 34, N-(2-(2-(N-acetylsulfamoyl)phenyl)-6-(benzyl(propyl)amino)pyridin-4-yl)-2-(p-tolyl) acetamide] |
| 256 | CCCN(Cc1ccccc1)c1cc(NC(=O)Nc2ccc(C)cc2)cc(-c2ccccc2S(=O)(=O)NC(C)=O)n1 [Example 35, N-((2-(6-(benzyl (propyl)amino)-4-(3-(p-tolyl)ureido)pyridin-2-yl)phenyl)sulfonyl) acetamide] |
| 205 | CCCN(Cc1ccccc1)c1cc(NC(=O)Nc2ccccc2C(F)(F)F)cc(-c2ccccc2-c2nnn[nH]2)n1 [Example 36, 1-(2-(2-(1H-tetrazol-5-yl)phenyl)-6-(benzyl(propyl)amino)pyridin-4-yl)-3-(2-(trifluoromethyl)phenyl)urea] |
| 3140 | CCCN(Cc1ccccc1)c1cc(NC(=O)Nc2ccc(C)nn2)cc(-c2ccccc2-c2nnn[nH]2)n1 [Example 37, 1-(2-(2-(1H-tetrazol-5-yl)phenyl)-6-(benzyl(propyl)amino)pyridin-4-yl)-3-(6-methyl-pyridazin-3-yl) urea] |
| 302 | CCCN(Cc1ccccc1)c1cc(NC(=O)Nc2ccc(C)cc2)cc(-c2ccccc2C(N)=O)n1 [Example 38, 2-(6-(benzyl (propyl)amino)-4-(3-(p-tolyl)ureido)pyridin-2-yl) benzamide] |
| 2.4 | CC(C)CN(Cc1ccc(F)cc1)c1cc(Nc2ccc(F)cc2)cc(-c2ccccc2-c2nnn[nH]2)n1 [Example 39, 6-(2-(1H-tetrazol-5-yl)phenyl)-N2-(4-fluorobenzyl)-N4-(4-fluorophenyl)-N2-isobutylpyridine-2,4-diamine] |
| 33.1 | Cc1cnc(Nc2cc(-c3ccccc3-c3nnn[nH]3)nc(N(Cc3ccc(F)cc3)CC(C)C)c2)nc1 [Example 40, 6-(2-(1H-tetrazol-5-yl)phenyl)-N2-(4-fluorobenzyl)-N2-isobutyl-N4-(5-methylpyrimidin-2-yl)pyridine-2,4-diamine, TFA] |
| 563 | Cc1ccc(Nc2cc(-c3ccccc3-c3nnn[nH]3)nc(N(Cc3ccc(F)cc3)CC(C)C)c2)nn1 [Example 41, 6-(2-(1H-tetrazol-5-yl)phenyl)-N2-(4-fluorobenzyl)-N2-isobutyl-N4-(6-methylpyridazin-3-yl)pyridine-2,4-diamine, TFA] |
| 120 | CC(C)CN(Cc1ccc(F)cc1)c1cc(Nc2ccn3nccc3n2)cc(-c2ccccc2-c2nnn[nH]2)n1 [Example 42, 6-(2-(1H-tetrazol-5-yl)phenyl)-N2-(4-fluorobenzyl)-N2-isobutyl-N4-(pyrazolo[1,5-a]pyrimidin-5-yl)pyridine-2,4-diamine, TFA] |

| IC50 [nM] | Structure (SMILES) |
| --- | --- |
| 31.2 | CC(C)CN(Cc1ccc(F)cc1)c1cc(Nc2nc3ccccc3s2)cc(-c2ccccc2-c2nnn[nH]2)n1 [Example 43, 6-(2-(1H-tetrazol-5-yl)phenyl)-N4-(benzo[d]thiazol-2-yl)-N2-(4-fluorobenzyl)-N2-isobutylpyridine-2,4-diamine, TFA] |
| 35.7 | CC(C)CN(Cc1ccc(F)cc1)c1cc(Nc2ncc(F)cn2)cc(-c2ccccc2-c2nnn[nH]2)n1 [Example 44, 6-(2-(1H-tetrazol-5-yl)phenyl)-N2-(4-fluorobenzyl)-N4-(5-fluoropyrimidin-2-yl)-N2-isobutylpyridine-2,4-diamine, TFA] |
| 239 | Cc1ncccc1Nc1cc(-c2ccccc2-c2nnn[nH]2)nc(N(Cc2ccc(F)cc2)CC(C)C)c1 [Example 45, 6-(2-(1H-tetrazol-5-yl)phenyl)-N2-(4-fluorobenzyl)-N2-isobutyl-N4-(2-methylpyridin-3-yl)pyridine-2,4-diamine, TFA] |
| 1.1 | CC(C)CN(Cc1ccc(F)cc1)c1cc(Nc2ccc3c(c2)OCO3)cc(-c2ccccc2-c2nnn[nH]2)n1 [Example 46, 6-(2-(1H-tetrazol-5-yl)phenyl)-N4-(benzo[d][1,3]dioxol-5-yl)-N2-(4-fluorobenzyl)-N2-isobutylpyridine-2,4-diamine] |
| 17.2 | CC(C)CN(Cc1ccc(F)cc1)c1cc(Nc2cccc(C(F)F)n2)cc(-c2ccccc2-c2nnn[nH]2)n1 [Example 47, 6-(2-(1H-tetrazol-5-y1)phenyl)-N4-(6-(difluoromethyl)pyridin-2-yl)-N2-(4-fluorobenzyl)-N2-isobutylpyridine-2,4-diamine] |
| 10.7 | CC(C)CN(Cc1ccc(F)cc1)c1cc(Nc2ccc(F)cn2)cc(-c2ccccc2-c2nnn[nH]2)n1 [Example 48, 6-(2-(1H-tetrazol-5-yl)phenyl)-N2-(4-fluorobenzyl)-N4-(5-fluoropyridin-2-yl)-N2-isobutylpyridine-2,4-diamine] |
| 31.6 | Cc1cnc(Nc2cc(-c3ccccc3-c3nnn[nH]3)nc(N(Cc3ccccc3)CC(C)C)c2)cn1 [Example 49, 6-(2-(1H-tetrazol-5-yl)phenyl)-N2-benzyl-N2-isobutyl-N4-(5-methylpyrazin-2-yl)pyridine-2,4-diamine, TFA] |
| 131 | CC(C)CN(Cc1ccccc1)c1cc(Nc2ccn3nccc3n2)cc(-c2ccccc2-c2nnn[nH]2)n1 [Example 50, 6-(2-(1H-tetrazol-5-y1)phenyl)-N2-benzyl-N2-isobutyl-N4-(pyrazolo[1,5-a]pyrimidin-5-yl)pyridine-2,4-diamine] |
| 60.3 | Cc1cnc(Nc2cc(-c3ccccc3-c3nnn[nH]3)nc(N(Cc3ccccc3)CC(C)C)c2)nc1 [Example 51, 6-(2-(1H-tetrazol-5-yl)phenyl)-N2-benzyl-N2-isobutyl-N4-(5-methylpyrimidin-2-yl)pyridine-2,4-diamine] |
| 191 | CC(C)CN(Cc1ccccc1)c1cc(Nc2nnc(-c3ccccc3)s2)cc(-c2ccccc2-c2nnn[nH]2)n1 [Example 52, 6-(2-(1H-tetrazol-5-yl)phenyl)-N2-benzyl-N2-isobutyl-N4-(5-phenyl-1,3,4-thiadiazol-2-yl)pyridine-2,4-diamine] |
| 4.9 | CC(C)CN(Cc1ccccc1)c1cc(Nc2nccc(N3CCOCC3)n2)cc(-c2ccccc2-c2nnn[nH]2)n1 [Example 53, 6-(2-(1H-tetrazol-5-yl)phenyl)-N2-benzyl-N2-isobutyl-N4-(4-morpholinopyrimidin-2-yl)pyridine-2,4-diamine, TFA] |
| 11.5 | CC(C)CN(Cc1ccccc1)c1cc(Nc2ncc(F)cn2)cc(-c2ccccc2-c2nnn[nH]2)n1 [Example 55, 6-(2-(1H-tetrazol-5-yl)phenyl)-N2-benzyl-N4-(5-fluoropyrimidin-2-yl)-N2-isobutylpyridine-2,4-diamine, 1.5 TFA] |
| 8.6 | CC(C)CN(Cc1ccccc1)c1cc(Nc2ccc(F)cc2F)cc(-c2ccccc2-c2nnn[nH]2)n1 [Example 56, 6-(2-(1H-tetrazol-5-yl)phenyl)-N2-benzyl-N4-(2,4-difluorophenyl)-N2-isobutylpyridine-2,4-diamine] |
| 4 | CC(C)CN(Cc1ccccc1)c1cc(Nc2ccc3c(c2)OCO3)cc(-c2ccccc2-c2nnn[nH]2)n1 [Example 57, 6-(2-(1H-tetrazol-5-yl)phenyl)-N4-(benzo[d][1,3]dioxol-5-yl)-N2-benzyl-N2-isobutylpyridine-2,4-diamine] |
| 4.2 | CCCN(Cc1ccccc1)c1cc(Nc2ccc3nc(C)sc3c2)cc(-c2ccccc2-c2nnn[nH]2)n1 [Example 58, 6-(2-(1H-tetrazol-5-yl)phenyl)-N2-benzyl-N4-(2-methylbenzo [d]thiazol-6-yl)-N2-propylpyridine-2,4-diamine] |
